Experimental data reported in patent US7674464B2, “Intracellular interleukin-1 receptor antagonists” (The University of Tennessee Research Foundation, priority 2004, dated 2010).
Like-named read-outs stand apart in the source and are kept apart here.

How the values were obtained:
PGE2 = test: IL-1β-induced fibroblast PGE2 synthesis, RIA; format: cell-based, human
Description: Confluent fibroblast monolayer cultures were preincubated with IL-1ra peptides for 2 h and then with hrIL-1β for 24 h. PGE2 was quantitated by RIA.
Additionally, since IL-1β stimulates PGE2 synthesis by fibroblasts, the effect of peptides disclosed in Table 5 on the PGE2 production by fibroblasts was examined. Briefly, Maintenance Medium in multi-well plates comprising the fibroblasts that were grown to confluency for 3 days was changed to Maintenance Medium containing 2.5% FCS (450 μl/well). This was followed by addition of IL-1ra peptides or hrsIL-1ra (25 μl aliquots) to culture wells 2 hrs prior to addition of hrIL-1β (100 pg/ml). After an additional 24 h incubation, PGE2 was measured in these culture supernatants. PGE2 was extracted from fibroblast culture supernatants and measured by a previously described radioimmunoassay technique (Ballou et al., 1990; Postlethwaite et al., 1989). It was observed that IL-1ra peptide with SEQ ID NO: 15 inhibited IL-1-induced fibroblast synthesis of PGE2 (FIG. 23). Recombinant IL-1ra (100 ng/ml) inhibited IL-1-induced PGE2 production to a level of 150 pg/ml.

type I IL-1R [1] = molecular target: T1, type I IL-1R (Mus musculus, UniProt P13504); test: [125I] IL-1beta competitive binding to type I IL-1 receptors on EL4 6.1 cells; design: IL-1beta from type I IL-1Rs on the EL46.1 cells; endogenous in cells; host or cells: EL4 6.1 (murine T cell line); species or system murine
T1 sequence (P13504 20-576): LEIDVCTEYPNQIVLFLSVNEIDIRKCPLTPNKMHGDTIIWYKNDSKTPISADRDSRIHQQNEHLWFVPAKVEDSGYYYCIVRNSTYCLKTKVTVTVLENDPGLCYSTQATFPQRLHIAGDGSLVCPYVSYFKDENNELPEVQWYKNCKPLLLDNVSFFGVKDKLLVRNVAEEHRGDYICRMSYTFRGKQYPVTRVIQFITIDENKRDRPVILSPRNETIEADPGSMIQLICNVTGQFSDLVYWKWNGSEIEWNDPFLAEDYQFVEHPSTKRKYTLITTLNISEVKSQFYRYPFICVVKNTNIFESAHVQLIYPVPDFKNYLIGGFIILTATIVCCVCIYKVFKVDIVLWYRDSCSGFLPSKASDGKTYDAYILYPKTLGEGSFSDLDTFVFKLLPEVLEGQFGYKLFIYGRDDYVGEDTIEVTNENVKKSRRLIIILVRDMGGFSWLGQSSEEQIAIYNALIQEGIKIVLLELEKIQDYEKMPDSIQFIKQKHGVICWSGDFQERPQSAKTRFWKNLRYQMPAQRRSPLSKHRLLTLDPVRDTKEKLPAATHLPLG
Description: IL-1 beta for binding to type I IL-1 receptors on murine cells. EL46.1 cells were incubated at 4° C. in presence of the sodium azide for 2 hr with and without each of the IL-1ra peptides or with soluble human recombinant interleukin 1ra (shrIL-1ra) as a control. Cells were then incubated with [^125I]hrIL-1, transferred to microfuge tubes containing phthalolate oil, centrifuged and free and bound radioactivity determined. Non-specific binding was determined in the presence of 100× excess concentration of cold hrIL-1 beta.
None of the peptides were able to displace [^125I] IL-1beta from type I IL-1Rs on the EL46.1 cells (FIG. 19). Additionally a competitive binding assay was performed in which the IL-1ra peptides were added to the EL4 cells at the same time [^125I] was added. No displacement of [^125I] IL-1 beta was observed from its receptors in the presence of these IL-1ra peptides.

type I IL-1R [2] = molecular target: T1, type I IL-1R; design: host or cells: EL4.IL-2 murine thymoma cells; details: murine thymoma cell line EL4.IL-2; read-out: affinity (Kp) for type I IL-1R; cited from earlier work
ICAM-1 = test: IL-1β-induced ICAM-1 expression on human dermal fibroblasts; format: cell-based
Description: Confluent fibroblast monolayers were cultured for […] with IL-1ra peptides and then for 24 h with IL-1β. ICAM expression on fibroblast monolayers was then quantitated.
Further, since IL-1 upregulates ICAM-1 expression on a variety of cells including fibroblasts, the ability of the peptides disclosed in Table 5 to inhibit IL-1β induced ICAM-1 expression on human dermal fibroblasts was examined. Briefly, fibroblasts were seeded in wells of flat bottom 96 well tissue culture plates (NUNC, Roskilde, Denmark) (1×10^4 cells […] Maintenance Medium). After 72 h, the culture medium was removed from each well and replaced with 450 μl Maintenance Medium and 25 μl of IL-1ra peptides or hrsIL-1ra (100 ng/ml). After incubation at 37° C. for 2 h in 5% CO2 humidified atmosphere, 25 μl hrIL-1β (100 pg/mL final concentration) was added to wells containing IL-1ra peptides or hrsIL-1ra. Wells with 50 μl PBS served as a negative control. PBS 25 μl+[…] IL-1β (100 pg/ml final concentration) was a positive control. Plates were incubated an additional 24 h, after which medium was removed from each well and the cells were fixed with 100 μl of 3.8% formaldehyde in PBS for 5-7 minutes at room temperature. The cells were rinsed twice with culture medium, and 100 μl of monoclonal mouse anti-ICAM-1 antibody (AMAC, Inc., Westbrook, Me.; diluted 0.2 mg original stock diluted 1:800 in culture medium) was applied to designated wells. The plate was then incubated at 4° C. overnight.
After washing the plate thrice with 300 μl of 0.1% BSA-PBS, 200 μl of secondary antibody, goat anti-mouse IgG antibody-conjugated to horseradish peroxidase (Pierce, Rockford, Ill.) diluted 1:4000 in 1% BSA-PBS, was added to each well and the plate was incubated at room temperature for 2 h. After a final wash with 0.1% BSA-PBS, 100 μl of peroxidase substrate solution (Pierce) containing 2,2′-azino-di[3-ethylbenzthiazoline sulfonate] (Kirkegaard & Perry Laboratories, Inc., Gaithersburg, Md.) was added to each well. This was followed 30-40 minutes later by reading of the optical density (OD) at 405 nm by a Microplate Autoreader (Bio-Tek Instruments, Inc., Winooski, Vt.). The color solution was discarded and the plate was then washed twice with PBS. Finally, the cells were digested with 30 μl of 0.6 M NaOH overnight, and the amount of protein in each well was determined using BCA assay reagents (Pierce). ICAM-1 expression was presented as OD/mg protein. […] The hrsIL-1ra (100 ng/mL) inhibited IL-1β-induced ICAM-1 expression to 6 O.D. units/mg of cellular protein.

collagenase (MMP-1) [3] = test: IL-1β-induced collagenase (MMP-1) production by dermal fibroblasts, ELISA; format: cell-based, human
Description: Confluent fibroblast monolayer cultures were treated for 2 hr with IL-1ra peptides and cultured for 48 h with hrIL-1β. Collagenase protein was measured in culture supernatants by ELISA.
(§1) Furthermore, the effect of the IL-1ra peptides on the stimulation of MMP-1 and TIMP expression was examined. Briefly, fibroblasts were seeded in wells of Flacon 3008 multiwell plates (5×10^4 cells/500 μl Maintenance Medium). After 72 h culture, the medium was removed from each well and replaced with Maintenance Medium (450 μl) containing 5% FCS and 25 μl of IL-1ra peptides or hrsIL-1ra peptide being tested. Two hrs later 25 μl IL-1β (100 pg/ml) was added to appropriate wells. Plates were incubated for 48 h, at which time medium was collected from each well. Levels of TIMP and collagenase produced by fibroblasts during culture were measured by specific ELISA techniques as previously described (Postlethwaite et al., 1988).

TIMP-1 = test: IL-1β-stimulated TIMP-1 production by fibroblasts, ELISA; format: cell-based, human
Description: TIMP-1 was measured in the same fibroblast culture supernatants as in FIG. 21.
as §1

D10.G4.1 T cells = test: lymphocyte mitogenesis assay: IL-1α-stimulated proliferation of D10.G4.1 T cells; format: cell-based, murine; details: peptides added 1 hour before IL-1α (10 ng/ml)
Description: An hour prior to the addition of hrIL-1α, the IL-1ra peptides were added to cultures of murine T cell line, D10.G4.1 and ^3H thymidine incorporation was quantitated.
Since sIL-1ra blocks IL-1 stimulation of T cells, the abilities of the IL-1ra peptides of Table 5 to inhibit mitogenesis of murine D10.G4.1 cells in response to IL-1α were assessed by performing lymphocyte mitogenesis assay. Briefly, different concentrations of IL-1ra peptides were added to culture 1 hour prior to addition of IL-1α (10 ng/ml). The results are expressed as mean cpm of quadruplicate determinations corrected for background. The standard error of the mean for each sample tested was 10% or less. None of the peptides disclosed in Table 5 inhibited IL-1α stimulation of proliferation of D10.G4.1 T cells (FIG. 20). Further, the uptake of ^125I IL-1ra peptide with SEQ ID NO: 13 by dermal fibroblasts was investigated. Briefly, the SEQ ID NO: 13 peptide (25 μg in 125 μl 0.125 sodium borate buffer pH 8.5) was labeled with ^125I-Bolton Hunter Reagent (New England Nuclear, Boston, Mass.) according to manufacturer's instructions. The labeled IL-1ra was separated from the free ^125I by passage over a Bio-Gel P-2 (BioRad, Richmond, Calif.) 1 ml column equilibrated and eluted with phosphate buffered saline containing 0.1% gelatin. […]

collagenase (MMP-1) [4] = test: IL-1β-induced collagenase (MMP-1) production by dermal fibroblasts, ELISA; format: cell-based, human; details: same wells as collagenase assay
[5] = listed as 60-90 (SEQ ID NO: 15)

hrsIL-1ra: soluble human recombinant interleukin 1ra, used as control [reference compound]
level to which IL-1-induced PGE2 production was inhibited (PGE2; 100 ng/ml): 150 pg/mL | displacement of [125I] IL-1 beta from EL4 cells (type I IL-1R [1]; 100× excess): greater than 90% | Kd (type I IL-1R [2]): 0.15 nM | level to which IL-1β-induced ICAM-1 expression was inhibited (ICAM-1; 100 ng/mL): 6 O.D. units/mg of cellular protein

IHGGKMCLSCVKSGDETRLQLEAVNITDLSE (IL-1ra peptides representing the mature form of human sIL-1ra) [IL-1ra 60-90, synthetic peptide, residues 60-90 of IL-1ra]
inhibition of IL-1-induced fibroblast PGE2 synthesis (PGE2; [5]): blocked | inhibition of IL-1-induced fibroblast PGE2 synthesis (PGE2; listed as IL-1ra peptide 60-90): inhibited | inhibition of IL-1-induced fibroblast PGE2 synthesis (PGE2; listed as SEQ ID NO: 15): inhibited | inhibition of IL-1-induced collagenase production by fibroblasts (collagenase (MMP-1) [3]): failed to block | inhibition of IL-1β-induced TIMP-1 production by fibroblasts (TIMP-1): failed to block | inhibition of IL-1-stimulated proliferation of D10.G4.1 T cells (D10.G4.1 T cells): did not block | inhibition of IL-1β-induced ICAM-1 expression on fibroblasts (ICAM-1; [5]): blocked | inhibition of IL-1β-induced ICAM-1 expression on fibroblasts (ICAM-1; listed as IL-1ra peptide 60-90): inhibited | inhibition of IL-1β-induced ICAM-1 expression on fibroblasts (ICAM-1; listed as SEQ ID NO: 15): inhibited the ICAM-1 expression on cultured fibroblasts in a dose dependent manner

RPSGRKSSKMQAFRIWDVNQKTFYLRNNQLVAGYL (IL-1ra peptides representing the mature form of human sIL-1ra) [IL-1ra 1-35, synthetic peptide, residues 1-35 of mature human sIL-1ra]
concentrations at which IL-1 induced collagenase synthesis was inhibited (collagenase (MMP-1) [3]; dermal fibroblasts, FIG. 21): ≥ 10^−10 M | inhibition of IL-1-induced collagenase production by fibroblasts (collagenase (MMP-1) [3]; listed as 1-35 (SEQ ID NO: 13)): blocked | inhibition of IL-1-induced collagenase production by fibroblasts (collagenase (MMP-1) [3]; listed as IL-1ra peptide 1-35): inhibited | competition with / displacement of [125I] IL-1beta from type I IL-1Rs (type I IL-1R [1]; EL4 6.1 cells): did not competitively inhibit the binding | fibroblast growth (counting trypsinized cells in hemocytometer) (collagenase (MMP-1) [4]): unchanged
